Results from EP0451772A1, “Piperidine compounds, method for preparation thereof, and a pharamceutical composition comprising the same” (HOKURIKU PHARMACEUTICAL CO., LTD., priority 1990, dated 1991).
Counter-ions that a name gives are not always drawn. Like-named read-outs stand apart in the source and are kept apart here.

Legend:
[1] = test system: passive cutaneous anaphylaxis (PCA) in rats; assay: 48 hr homologous passive cutaneous anaphylaxis (PCA) in rats; format: in vivo, Male Wistar rats; details: Rattus norvegicus, po, read-out: the percent inhibition of PCA in rats
Protocol: (§1) The results of 48 hr homologous passive cutaneous anaphylaxis (PCA) in rats with the monitoring of antiallergic activity and the results of potentiation of hexobarbital-induced anesthesia in mice with the monitoring of central nervous depressive activity are summarized in Table 1. The following compound was used as the reference compound. Reference compound : Ketotifen-Fumarate
Ascaris extract coupled with 2, 4-dinitrophenyl group (DNP-As) was prepared by the method of Koda et al. (Folia pharmacol. japon., 78, 319-334, 1981) and anti-DNP-As containing IgE antibody serum was prepared by the method of Tada and Okumura (J. Immunol., 106, 1019-1025, 1971). The PCA titer of the antiserum was estimated to be 1:128 by 48 hr PCA in rats.
Male Wistar rats weighing 160 to 200 g were sensitized passively by intradermal injection, in the back, of 0.05 ml of anti-DNP-As serum diluted 21-fold with saline. After 48 hr, the animals (18-20 hr fasted) were given iv. 0.5 ml of 1% Evans blue solution containing 1 mg of DNP-As. After an additional 30 min, the animals were killed by stunning and the skins were removed. The intensity of the response was evaluated by assaying the amount of dye leaked according to the method of Katayama et al. (Microbiol. Immunol., 22, 89-101, 1978). The percent inhibition of PCA was calculated using the following formula: [formula]
Test compounds were given orally in a dose of 1 mg/kg 1 hr prior to challenge with antigen. As a control, 5 ml/kg of vehicle (0.5 % CMC) alone were given in a similar manner.

[2] = test system: hexobarbital-induced anesthesia in mice; parameters: species or system male ddY mice; details: mouse, in vivo
Text: as §1
The loss of righting reflex induced by hexobarbital was used as an index of anesthesia. Groups of eight male ddY mice (20-24 hr fasted) weighing 19 to 27 g were treated orally with the test compounds (30 mg/kg) or vehicle. Thirty min later, 80 mg/kg of hexobarbital sodium were injected i.p. to the animals and the duration of loss of righting reflex was observed.

[3] = 1 mg/kg, p.o., 1 hr prior to challenge with antigen, amount of dye leaked

Structure (SMILES) | inhibition in vivo at 1 mg/kg [1, 3] [%] | the percent increase of hexobarbital-induced anesthesia in mice [2] [%] | inhibition in vivo at 1 mg/kg [1] [%]
Cl.O=C(O)CCN1CCC(=C2c3ccccc3CC(=O)c3sccc32)CC1 [Example 5, 4-(4,9-Dihydro-10-oxo-10H-benzo[4,5]cyclohepta[1,2-b]thiophen-4-ylidene)-1-piperidinepropionic Acid Hydrochloride] | 75 | 24 | 
Cl.O=C(O)CCCN1CCC(=C2c3ccccc3CC(=O)c3sccc32)CC1 [Example 6, 4-(4,9-Dihydro-10-oxo-10H-benzo[4,5]cyclohepta[1,2-b]thiophen-4-ylidene)-1-piperidinebutyric Acid Hydrochloride] | 77 | 26 | 
Cl.O=C(O)CCCCN1CCC(=C2c3ccccc3CC(=O)c3sccc32)CC1 [Example 8, 4-(4,9-Dihydro-10-oxo-10H-benzo[4,5]cyclohepta[1,2-b]thiophen-4-ylidene)-1-piperidinevaleric Acid Hydrochloride] | 71 | 27 | 
O=C(O)CCN1CCC(=C2c3ccccc3CSc3ccccc32)CC1 [Example 10, 4-(Dibenzo[b,e]thiepin-11(6H)-ylidene)-1-piperidinepropionic Acid Hydrochloride] | 69 | 19 | 
O=C(O)CCCN1CCC(=C2c3ccccc3CSc3ccccc32)CC1 [Example 13, 4-(Dibenzo[b,e]thiepin-11(6H)-ylidene)-1-piperidinebutyric Acid Hydrochloride] | 58 | 30 | 
Cl.O=C(O)CCCCN1CCC(=C2c3ccccc3CSc3ccccc32)CC1 [Example 14, 4-(Dibenzo[b,e]thiepin-11(6H)-ylidene)-1-piperidinevaleric Acid Hydrochloride] | 63 | 19 | 
Cl.O=C(O)CCCCCN1CCC(=C2c3ccccc3CSc3ccccc32)CC1 [Example 15, 4-(Dibenzo[b,e]thiepin-11(6H)-ylidene)-1-piperidinecaproic Acid Hydrochloride] | 57 | 33 | 
O=C(O)CCN1CCC(=C2c3ccccc3Sc3ccccc32)CC1 [Example 18, 4-(9H-Thioxanthen-9-ylidene)-1-piperidinepropionic Acid] | 96 | 49 | 
CN1CCC(=C2c3ccccc3CC(=O)c3sccc32)CC1 [Reference compound, 4,9-dihydro-4-(1-methyl-4-piperidinylidene)-10H-benzo[4,5]cyclohepta[1,2-b]thiophen-10-one, reference compound] |  | 90 | 56
